T1: Wild Type (SEQ ID NO: 16) (Thermotoga maritima, UniProt Q9WXT2)
T1 construct: made in house; host or cells: E. coli
T1 sequence (Q9WXT2 1-325): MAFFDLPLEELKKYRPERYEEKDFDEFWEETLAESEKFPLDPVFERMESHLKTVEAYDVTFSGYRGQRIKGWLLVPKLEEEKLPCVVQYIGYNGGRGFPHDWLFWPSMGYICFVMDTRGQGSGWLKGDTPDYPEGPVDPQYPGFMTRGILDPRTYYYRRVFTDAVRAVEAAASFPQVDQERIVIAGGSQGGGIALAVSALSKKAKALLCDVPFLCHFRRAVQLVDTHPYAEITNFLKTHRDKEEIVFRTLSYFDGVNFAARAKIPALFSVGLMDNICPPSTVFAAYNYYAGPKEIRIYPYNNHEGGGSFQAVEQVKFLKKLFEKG

B1: EZ-4: C277S-link1-(GK)5, SEQ ID NO: 427 (protein)
chain: MAFFDLPLEELKKYRPERYEEKDFDEFWEETLAESEKFPLDPVFERMESHLKTVEAYDVTFSGYRGQRIKGWLLVPKLEEEKLPCVVQYIGYNGGRGFPHDWLFWPSMGYICFVMDTRGQGSGWLKGDTPDYPEGPVDPQYPGFMTRGILDPRTYYYRRVFTDAVRAVEAAASFPQVDQERIVIAGGSQGGGIALAVSALSKKAKALLCDVPFLCHFRRAVQLVDTHPYAEITNFLKTHRDKEEIVFRTLSYFDGVNFAARAKIPALFSVGLMDNISPPSTVFAAYNYYAGPKEIRIYPYNNHEGGGSFQAVEQVKFLKKLFEKGGPGSGGAGSPGSAGGPGSGKGKGKGKGK

Legend:
[1] = biological target: T2, C277T/R296P (SEQ ID NO: 476) (Thermotoga maritima, UniProt Q9WXT2, C277T/R296P); assay type: biochemical; conditions: 100 mM ester, 60 mM H2O2, 40 ppm enzyme, 95 mM phosphate pH 7.2, 37° C.
T2 construct: made in house; host or cells: E. coli
T2 sequence (Q9WXT2 whole entry C277T/R296P): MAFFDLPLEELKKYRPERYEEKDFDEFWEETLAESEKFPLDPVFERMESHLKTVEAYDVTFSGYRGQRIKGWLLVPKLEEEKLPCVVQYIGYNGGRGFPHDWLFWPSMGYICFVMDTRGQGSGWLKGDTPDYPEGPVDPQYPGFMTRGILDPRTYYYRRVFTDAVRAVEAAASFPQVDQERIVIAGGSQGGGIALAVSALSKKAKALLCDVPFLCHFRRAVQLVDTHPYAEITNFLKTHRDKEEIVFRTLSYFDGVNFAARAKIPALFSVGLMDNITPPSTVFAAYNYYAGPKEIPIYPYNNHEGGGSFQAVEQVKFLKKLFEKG
Procedure: (§1) To test various enzymes against an ester substrate, it was convenient to run up to 4 reactions simultaneously by staggering the beginning of each individual reaction by 0.5-1 min. Each individual reaction was performed in a glass vessel (height: 76 mm; o.d.: 33 mm; i.d.: 24 mm) equipped with a magnetic stirring bar. Four reaction vessels were banded together and kept at constant temperature in a jacketed one-liter, stainless steel, tempering beaker (KGW IsoTherm, # TSS-G 1000W) with circulating water controlled by a Thermo NesLab recirculation bath (Model # RTE-7 Digital One). Buffer (6 mL, 100 mM sodium phosphate buffer, pH 7.2) was added to each reaction vessel and allowed to equilibrate to 37° C. The ester substrate of interest was added to achieve 100 mM concentration. […] To follow the production of peracetic acid, 80 μL samples from each reaction were removed at specific intervals from 1 to 15 minutes. The sample was immediately quenched in a microfuge filter tube (NanoSep 30K VWR cat #82031-354) containing a volume and concentration of phosphoric acid solution that was sufficient to stop the enzymatic reaction (by lowering the pH between 2 and 3) and to dilute the sample for convenient HPLC analyses. The acid-quenched samples were centrifuged for 5 minutes to remove any particulates.

[2] = biological target: T3, C277S (SEQ ID NO: 424) (Thermotoga maritima, UniProt Q9WXT2, C277S); assay type: biochemical; conditions: 100 mM ester, 60 mM H2O2, 40 ppm enzyme, 95 mM phosphate pH 7.2, 37° C.
T3 construct: made in house; host or cells: E. coli
Procedure: as §1

[3] = biological target: T1, Wild Type (SEQ ID NO: 16); test: Maximum peracetic acid from ester substrates with wild type perhydrolase (Example 14); assay type: biochemical; conditions: 100 mM ester, 60 mM H2O2, 40 ppm enzyme, 95 mM phosphate pH 7.2, 37° C.
Procedure: as §1

[4] = biological target: T4, C277T (SEQ ID NO: 437) (Thermotoga maritima, UniProt Q9WXT2, C277T); assay type: biochemical; conditions: 100 mM ester, 60 mM H2O2, 40 ppm enzyme, 95 mM phosphate pH 7.2, 37° C.
T4 construct: made in house; host or cells: E. coli
T4 sequence (Q9WXT2 whole entry C277T): as the sequence (Q9WXT2 whole entry C277T/R296P) above, with P296R counted along it
Procedure: as §1

[5] = Retention of perhydrolase on hydroxyapatite (SDS-PAGE band strength); assay type: binding; conditions: relative to enzyme input = 1
Procedure: Perhydrolase enzymes listed in Table 6 were assessed for binding to hydroxyapatite. A dispersion of hydroxyapatite nanoparticles (Aldrich 677418) was made at 0.5% solids in 10 mM phosphate buffer at pH 7.2. Enzyme stock solution was added to the hydroxyapatite dispersion to a final concentration of 10 μM and incubated for 30 min in a microcentrifuge tube with gentle agitation. Each sample was centrifuged for 5 min at 10000 rpm. The supernatant was removed and additional buffer was added. The particles were resuspended and transferred to a new tube. The process was repeated two additional times. Samples of the original input of enzyme, the supernatant removed from the particles with each wash step and the final particles were prepared for SDS-PAGE analysis by combining 60 μL of sample, 20 μL of LDS buffer and 8 μL of reducing agent (Nu-PAGE). Samples were heated at 85° C. for 10 min. 25 μL of each sample was loaded on a 4-12% BisTris gel (Invitrogen) and run at 115 volts for 1.5 h. The gel was removed and stained with a 1:1 dilution of Simply Blue stain (Invitrogen) overnight and destained for 4 h in deionized water. The gel was analyzed and detection of enzyme in each fraction was estimated based on the presence of a band. The results of the analysis are provided in Table 7 with an indication of the relative strength of each band in the gel compared to the enzyme input (input=1) to determine the strength of binding between the hydroxyapatite surface and each enzyme.

[6] = Two-step bleaching of coffee-tea stained bovine enamel (Example 16)
Procedure: Bovine enamel incisors were prepared as indicated in Example 1. The stained enamel blocks were embedded in a 48 well plate to protect the dentin backside from solution exposure. A solution of 10 μM of each enzyme in 10 mM phosphate buffer, pH 7.2 was prepared and 500 μL of solution was incubated with each enamel substrate for 60 min. The enzyme solution was removed and each well was rinsed three times with an additional 500 μL of buffer. The enamel blocks were placed in a fresh well for the whitening process. A solution with a final concentration of 40 mM triacetin, 100 mM H2O2 in 50 mM phosphate pH 7.2 buffer was freshly prepared and 500 μL of solution was added to each enamel block. Over the course of 1 hr the enamel blocks were removed and a color measurement was obtained and then each was returned to the solution in the well plate. The whiteness index for each sample was monitored.

| Molecule | Maximum Peracetic Acid (PAA) (ppm), C277T/R296P (SEQ ID NO: 476) [1] [ppm] | Maximum Peracetic Acid (PAA) (ppm), C277S (SEQ ID NO: 424) [2] [ppm] | Maximum Peracetic Acid (PAA) (ppm), Wild Type (SEQ ID NO: 16) [3] [ppm] | Maximum Peracetic Acid (PAA) (ppm), C277T (SEQ ID NO: 437) [4] [ppm] | further results |
| --- | --- | --- | --- | --- | --- |
| CC(=O)OC1OC[C@@H](OC(C)=O)[C@@H](OC(C)=O)[C@H]1OC(C)=O (stereo partly drawn) [1,2,3,4-tetra-O-acetyl-ribopyranose] | 3503 | 3525 | 2278 | 3361 |  |
| CC(=O)OC[C@H]1OC(OC(C)=O)[C@H](OC(C)=O)[C@@H]1OC(C)=O (stereo partly drawn) [1,2,3,5-tetra-O-acetyl-ribofuranose] | 3270 | 3397 | 2828 | 3472 |  |
| CC(=O)OC[C@H]1OC(OC(C)=O)[C@@H](O)[C@@H](OC(C)=O)[C@@H]1OC(C)=O (stereo partly drawn) [1,3,4,6-tetra-O-acetyl-mannopyranose] |  | 3593 | 2361 | 3436 |  |
| CC(=O)OCCCCCOC(C)=O [1,5-pentanediol diacetate] | 364 | 335 | 435 | 484 |  |
| CC(=O)OC[C@H]1O[C@@H](S)[C@H](OC(C)=O)[C@@H](OC(C)=O)[C@@H]1OC(C)=O [1-thio-β-D glucose-2,3,4,6-tetraacetate] | 147 | 0 | 156 | 171 |  |
| CC(=O)N[C@@H]1[C@@H](OC(C)=O)[C@H](OC(C)=O)[C@@H](COC(C)=O)O[C@@H]1Cl [2-acetamido-2-deoxy-3,4,6 triacetyl-1-chloride-α-D-glucopyranose] | 876 | 863 | 548 | 899 |  |
| C=CC(COC(C)=O)OC(C)=O (stereo not drawn) [3,4-diacetoxy-1-butene] | 2478 | 2281 | 1692 | 2285 |  |
| CC(=O)Oc1ccc(C(=O)O)cc1 [4-acetoxybenzoic acid] | 485 | 604 | 398 | 426 |  |
| CC(=O)OCc1ccc(C=O)o1 [5-acetoxymethyl-2-furaldehyde] | 1136 | 1185 | 778 | 1125 |  |
| CC(=O)OCC(O)COC(C)=O [Diacetin] | 1087 | 1013 | 1160 | 1132 |  |
| CC(=O)OCCOCCOC(C)=O [Diethylene glycol diacetate] | 530 | 469 | 424 | 653 |  |
| CC(=O)OCCOC(C)=O [Ethylene glycol diacetate] | 1020 | 1007 | 794 | 1059 |  |
| COCC(C)OC(C)=O (stereo not drawn) [Propylene glycol methyl ether acetate] | 181 | 173 | 177 | 197 |  |
| CC(=O)OC[C@H](OC(C)=O)[C@@H](OC(C)=O)[C@H](OC(C)=O)[C@@H](COC(C)=O)OC(C)=O [Sorbitol hexaacetate] | 616 | 712 | 381 | 705 |  |
| CC(=O)OC[C@H]1OC=C[C@@H](OC(C)=O)[C@@H]1OC(C)=O [Tri-O-acetyl glucal] | 1034 | 1047 | 729 | 1319 |  |
| CO[C@@H]1OC[C@@H](OC(C)=O)[C@H](OC(C)=O)[C@H]1OC(C)=O [β-methyl xyloside triacetin] |  | 3856 |  | 3635 |  |
| B1 |  |  |  |  | Unbound (relative band strength) ([5]; 10 μM enzyme, 0.5% hydroxyapatite, pH 7.2): 0.5; HAP Particles (relative band strength) ([5]; enzyme retained on particles after washes): 0.4; Wash1 (relative band strength) [5]: 0.05; Wash2 (relative band strength) [5]: 0.05; Whiteness Index 0 min ([6]; two-step: 10 μM enzyme 60 min, rinsed, then 40 mM triacetin, 100 mM H2O2, pH 7.2, before step 2): −158.9; ΔWI ([6]; two-step, 0 to 60 min): 69.4; Whiteness Index 5 min ([6]; two-step, 5 min in triacetin/H2O2): −143.6; Whiteness Index 15 min ([6]; two-step, 15 min in triacetin/H2O2): −149.5; Whiteness Index 30 min ([6]; two-step, 30 min in triacetin/H2O2): −129.4; Whiteness Index 45 min ([6]; two-step, 45 min in triacetin/H2O2): −106.5; Whiteness Index 60 min ([6]; two-step, 60 min in triacetin/H2O2): −89.5 |

Reference: patent US8663616B2, “Enzymatic peracid generation for use in oral care products” (E I du Pont de Nemours and Company, priority 2010, dated 2014)
